Test results from patent US20220023399A1, “BLOOD COMPONENT POTENTIATION OF LYTIC PROTEIN ANTI-BACTERIAL ACTIVITY AND METHODS AND USES THEREOF” (priority 2017, published 2022).
Converted amounts (≈) assume the structure as drawn. Read-outs that look alike come from different tables or passages of the source. No end group written: not given here.

Tests used:
[1] = system: staphylococci (strain not given); assay: Checkerboard analysis of PlySs2/CF-301 with AMPs, antimicrobial proteins and albumins in heat-inactivated human serum; assay type: cell-based, S. aureus; settings: in combination with PlySs2/CF-301
MRSA strain MW2 [2] = assay: Rabbit infective endocarditis model; assay type: in vivo, New Zealand White Rabbits; settings: rabbit IE model; daptomycin 4 mg/kg IV once daily for 4 days
MRSA strain MW2 [3] = assay: Checkerboard assay in human serum and MHB; assay type: cell-based, S. aureus; settings: in combination with PlySs2 (CF-301)
[4] = system: S. aureus (strain not given); assay: MIC analysis of various lysins, chimeric lysins and antibiotics in MHB and human serum; assay type: cell-based; settings: for Minimal inhibitory concentration, MHB / Fold decrease in MIC / Minimal inhibitory concentration, Human serum: Table 14 (Example 2); for Fold decrease in MIC: human serum vs MHB; for MIC: Staphylococcus aureus
Experimental: To further evaluate the binding domain relevance to the serum component effect, various chimerics were constructed by replacing or swapping out one binding domain for another. Chimeric lysins having the Sal1 CHAP catalytic domain with ClyS binding domain, PlySs2 (CF-301) binding domain, or lysostaphin binding domain were assayed for MIC using MHB versus human serum. the results are depicted below in TABLE 14.

[5] = system: S. aureus (strain not given); assay: as above; assay type: cell-based; settings: Table 2; for MIC: Staphylococcus aureus; for Fold decrease in MIC: human serum vs MHB
[6] = system: methicillin-resistant S. aureus (MRSA) strain MW2; assay: Time-kill assay in blood matrices and MHB; assay type: cell-based; settings: strain MW2; human blood matrices vs MHB
S. aureus strain MW2 = assay: Synergy time-kill assay; assay type: cell-based; settings: human serum

Compound: Serum albumin (Rabbit, from serum): rabbit serum albumin
- ΣFICavg [1]: ≤0.1

Compound: LEAP-1: Human AMP (Hepcidin) (DTHFPICIFCCGCCHRSKCGMCCKT; ends and bridges not checked; cysteine pairing not given here; UniProt P81172 60-84, looked up) [reference compound]
- ΣFICavg [1]: 0.75

Compound: CCCCCCCCCC(=O)N[C@@H](Cc1c[nH]c2ccccc12)C(=O)N[C@H](CC(N)=O)C(=O)N[C@@H](CC(=O)O)C(=O)N[C@@H]1C(=O)NCC(=O)N[C@@H](CCCN)C(=O)N[C@@H](CC(=O)O)C(=O)N[C@H](C)C(=O)N[C@@H](CC(=O)O)C(=O)NCC(=O)N[C@H](CO)C(=O)N[C@@H]([C@H](C)CC(=O)O)C(=O)N[C@@H](CC(=O)c2ccccc2N)C(=O)O[C@@H]1C [Daptomycin, daptomycin, reference compound]
- reduction in bacterial burden compared to vehicle treated controls (MRSA strain MW2 [2]): 2-3 log10
- ΣFICAVG (MRSA strain MW2 [3]; HuS): 0.292
- ΣFICMIN (MRSA strain MW2 [3]; HuS): 0.25
- ΣFICAVG (MRSA strain MW2 [3]; MHB): 0.63
- ΣFICMIN (MRSA strain MW2 [3]; MHB): 0.5
- Minimal inhibitory concentration, MHB [4]: 0.5 µg/mL (≈ 0.309 µM)
- Fold decrease in MIC [4]: no
- Minimal inhibitory concentration, Human serum [4]: 8 µg/mL (≈ 4.94 µM)
- MIC ([5]; MHB, read-out: Minimal inhibitory concentration, MHB): 0.5 µg/mL (≈ 0.309 µM)
- MIC ([5]; human serum, read-out: Minimal inhibitory concentration, Human serum): 8 µg/mL (≈ 4.94 µM)
- Fold decrease in MIC [5]: no

Compound: HNP-1: Human AMP [reference compound]
- ΣFICavg [1]: 1

Compound: Histatin-5 [reference compound]
- ΣFICavg [1]: ≥1.16

Compound: β-Defensin 3: Human AMP (hBD-3) (GIINTLQKYYCRVRGGRCAVLSCLPKEEQIGKCSTRGRKCCRRKK; ends and bridges not checked; cysteine pairing not given here; UniProt P81534 23-67, looked up) [reference compound]
- ΣFICavg [1]: 1

Compound: CN[C@H](CC(C)C)C(=O)N[C@H]1C(=O)N[C@@H](CC(N)=O)C(=O)N[C@H]2C(=O)N[C@H]3C(=O)N[C@H](C(=O)N[C@H](C(=O)O)c4cc(O)cc(O)c4-c4cc3ccc4O)[C@H](O)c3ccc(c(Cl)c3)Oc3cc2cc(c3O[C@@H]2O[C@H](CO)[C@@H](O)[C@H](O)[C@H]2O[C@H]2C[C@](C)(N)[C@H](O)[C@H](C)O2)Oc2ccc(cc2Cl)[C@H]1O [Vancomycin, vancomycin, reference compound]
- difference in sterilizing activity/potency, blood compared to MHB [6]: slightly decreased potency
- ΣFICAVG (MRSA strain MW2 [3]; HuS): 0.5
- ΣFICMIN (MRSA strain MW2 [3]; HuS): 0.375
- ΣFICAVG (MRSA strain MW2 [3]; MHB): 0.63
- ΣFICMIN (MRSA strain MW2 [3]; MHB): 0.5
- Minimal inhibitory concentration, MHB [4]: 1 µg/mL (≈ 0.69 µM)
- MIC ([4]; read-out: Minimal inhibitory concentration, Human serum): 1 µg/mL (≈ 0.69 µM)
- MIC ([4]; read-out: Minimal inhibitory concentration, MHB): 1 µg/mL (≈ 0.69 µM)
- Fold decrease in MIC [4]: no
- Minimal inhibitory concentration, Human serum [4]: 1 µg/mL (≈ 0.69 µM)
- Fold decrease in MIC [5]: no

Compound: Lysozyme (Hen egg-white): lysozyme, hen egg
- ΣFICavg [1]: ≤0.563

Compound: Lysostaphin: lysin-like enzyme of Staphylococcus simulans with SH3-type binding domain; SEQ ID NO:7
- difference in sterilizing activity/potency, blood compared to MHB [6]: 100 fold
- ΣFICAVG (MRSA strain MW2 [3]; HuS): 0.13
- ΣFICMIN (MRSA strain MW2 [3]; HuS): 0.09
- ΣFICAVG (MRSA strain MW2 [3]; MHB): 0.5
- ΣFICMIN (MRSA strain MW2 [3]; MHB): 0.275
- Minimal inhibitory concentration, MHB [4]: 2 µg/mL
- Fold decrease in MIC [4]: 512
- Minimal inhibitory concentration, Human serum [4]: 0.0039 µg/mL
- Minimal inhibitory concentration, MHB ([5]; MHB): 2 µg/mL
- Fold decrease in MIC [5]: 512
- Fold decrease in MIC ([5]; listed as lysostaphin): 32
- Minimal inhibitory concentration, Human serum ([5]; human serum): 0.0039 µg/mL
- concentration of each agent in PlySs2 (CF-301) + lysostaphin combination sterilizing at 24 hours (S. aureus strain MW2): 0.005 µg/mL

Compound: LEAP-2: Human AMP (MTPFWRGVSLRPIGASCRDDSECITRLCRKRRCSLSVAQE; ends and bridges not checked; cysteine pairing not given here; UniProt Q969E1 38-77, looked up) [reference compound]
- ΣFICavg [1]: 1

Compound: LL-37 [reference compound]
- ΣFICavg [1]: 1
